Test results reported in patent US6767897B2, “Therapeutic uses of tri-, tetra-, penta-, and polypeptides” (Innapharma, Inc., priority 1994, dated 2004).
Residues, ends and D or L forms follow the SMILES beside them.

Legend:
[1] = rat, in vivo, sc
[2] = system: animal models for depression; settings: in vivo; cited from earlier work

Compound	levels found in the hippocampus and the amygdala [1]	activity in animal models for depression [2]
4-F-Phe-cis- or trans-4-OH-Pro-Arg-Gly-Trp-NH2 [SEQ ID NO:43]	found at detectable levels and substantially unchaged in the hippocampus and the amygdala	
CC(C)C[C@H](NC(=O)[C@@H]1CCCN1)C(=O)NCC(N)=O [MIF, prolyl-leucyl-glycinamide] (H-Pro-Leu-Gly-NH2)		active in a number of animal models for depression
